Laboratory results from US6358885B1, “Substituted phenylheterocyclic herbicides” (Mississippi State University, priority 1992, dated 2002).

What was measured:
[1] = test system: barley; assay: Test B preemergence/postemergence greenhouse plant response rating 0 to 10; assay type: in vivo, Hordeum vulgare; settings: 0 to 10 scale
Procedure, shortened: (§1)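 Test chemicals, dissolved in a non-phytotoxic solvent, were applied to soil at planting and, at the same time, over foliage of seedlings at the one to four leaf stage.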

[2] = test system: barnyardgrass; assay: as above; assay type: in vivo, Echinochloa crus-galli; settings: 0 to 10 scale
Procedure, shortened: as §1

[3] = test system: chickweed; assay: as above; assay type: in vivo, Stellaria media; settings: 0 to 10 scale
Procedure, shortened: as §1

[4] = test system: corn; assay: as above; assay type: in vivo, Zea mays; settings: 0 to 10 scale
Procedure, shortened: as §1

[5] = test system: crabgrass; assay: as above; assay type: in vivo, Digitaria spp.; settings: 0 to 10 scale
Procedure, shortened: as §1

[6] = test system: giant foxtail; assay: as above; assay type: in vivo, Setaria faberii; settings: 0 to 10 scale
Procedure, shortened: as §1

[7] = test system: rape; assay: as above; assay type: in vivo, Brassica napus; settings: 0 to 10 scale
Procedure, shortened: as §1

[8] = test system: sorghum; assay: as above; assay type: in vivo, Sorghum bicolor; settings: 0 to 10 scale
Procedure, shortened: as §1

[9] = test system: wheat; assay: as above; assay type: in vivo, Triticum aestivum; settings: 0 to 10 scale
Procedure, shortened: as §1

[10] = test system: bedstraw; assay: Test C preemergence/postemergence greenhouse plant response rating 0 to 100; assay type: in vivo, Galium aparine; settings: POSTEMERGENCE; for Plant response rating, Bedstraw: 0 to 100 scale
Procedure, shortened: (§2)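 Compounds in non-phytotoxic solvent applied preemergence to sandy loam one day after planting, postemergence at the 1–4 leaf stage, or to ~2.5 cm floodwater over silt loam.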

[11] = test system: chickweed; assay: as above; assay type: in vivo, Stellaria media; settings: POSTEMERGENCE; for Plant response rating, Chickweed: 0 to 100 scale
Procedure, shortened: as §2

[12] = test system: crabgrass; assay: as above; assay type: in vivo, Digitaria sanguinalis; settings: POSTEMERGENCE; for Plant response rating, Crabgrass: 0 to 100 scale
Procedure, shortened: as §2

[13] = test system: downy brome; assay: as above; assay type: in vivo, Bromus tectorum; settings: POSTEMERGENCE; for Plant response rating Downy Brome: 0 to 100 scale
Procedure, shortened: as §2

[14] = test system: giant foxtail; assay: as above; assay type: in vivo, Setaria faberii; settings: POSTEMERGENCE; for Plant response rating, Giant foxtail: 0 to 100 scale
Procedure, shortened: as §2

[15] = test system: wild buckwheat; assay: as above; assay type: in vivo, Polygonum convolvulus; settings: POSTEMERGENCE; for Plant response rating, Wild buckwheat: 0 to 100 scale
Procedure, shortened: as §2

[16] = test system: wild oat; assay: as above; assay type: in vivo, Avena fatua; settings: POSTEMERGENCE; for Plant response rating, Wild oat: 0 to 100 scale
Procedure, shortened: as §2

[17] = test system: rice; assay: Test C flood test plant response rating 0 to 100; assay type: in vivo, Oryza sativa; settings: for Plant response rating Rice Japonica: flood test species listed under POSTEMERGENCE, 0 to 100 scale
Procedure, shortened: as §2

[18] = test system: duck salad; assay: Test C flood test plant response rating 0 to 100; assay type: in vivo, Heteranthera limosa; settings: for Plant response rating Duck salad: flood test species listed under POSTEMERGENCE, 0 to 100 scale
Procedure, shortened: as §2

[19] = POSTEMERGENCE section, flood test, Rate 4 g/ha
[20] = Rate 16 g/ha, under POSTEMERGENCE head (flood test species)

CCC(C)Oc1cc(-c2nn3c(c2Cl)CCCC3)c(F)cc1Cl (centres unmarked) [Compound 48]
30: Plant response rating (0 to 100), Chickweed ([11]; Rate 16 g/ha) | Plant response rating, Crabgrass ([12]; 62 g/ha) | Plant response rating (0 to 100), Giant foxtail ([14]; Rate 16 g/ha) | Plant response rating (0 to 100), Wild oat ([16]; Rate 16 g/ha) | Plant response rating Rice Japonica ([17]; 62 g/ha)
10: Plant response rating (0 to 100), Chickweed ([11]; Rate 4 g/ha) | Plant response rating (0 to 100), Crabgrass ([12]; Rate 4 g/ha) | Plant response rating (0 to 100), Rice Japonica [17, 19] | Plant response rating (0 to 100), Duck salad [18, 20]
7: Plant response rating, Barley ([1]; POSTEMERGENCE, Rate 50 g/ha)
9: Plant response rating, Chickweed ([3]; POSTEMERGENCE, Rate 50 g/ha) | Plant response rating, Crabgrass ([5]; POSTEMERGENCE, Rate 200 g/ha) | Plant response rating, Crabgrass ([5]; Rate 200 g/ha, PREEMERGENCE) | Plant response rating, Giant foxtail ([6]; Rate 200 g/ha, POSTEMERGENCE) | Plant response rating, Giant foxtail ([6]; Rate 200 g/ha, PREEMERGENCE) | Plant response rating, Rape ([7]; Rate 200 g/ha, PREEMERGENCE)
4: Plant response rating, Barnyardgrass ([2]; POSTEMERGENCE, Rate 50 g/ha) | Plant response rating, Chickweed ([3]; Rate 200 g/ha, PREEMERGENCE) | Plant response rating, Rape ([7]; PREEMERGENCE, Rate 50 g/ha) | Plant response rating, Sorghum ([8]; POSTEMERGENCE, Rate 50 g/ha)
2: Plant response rating, Barnyardgrass ([2]; PREEMERGENCE, Rate 50 g/ha) | Plant response rating, Crabgrass ([5]; PREEMERGENCE, Rate 50 g/ha) | Plant response rating, Wheat ([9]; Rate 200 g/ha, PREEMERGENCE)
0: Plant response rating, Barley ([1]; PREEMERGENCE, Rate 50 g/ha) | Plant response rating, Barley ([1]; Rate 200 g/ha, PREEMERGENCE) | Plant response rating, Corn ([4]; PREEMERGENCE, Rate 50 g/ha) | Plant response rating, Sorghum ([8]; PREEMERGENCE, Rate 50 g/ha) | Plant response rating, Wheat ([9]; PREEMERGENCE, Rate 50 g/ha) | Plant response rating (0 to 100), Downy Brome ([13]; Rate 4 g/ha) | Plant response rating (0 to 100), Duck salad [18, 19]
70: Plant response rating Downy Brome ([13]; 250 g/ha)
80: Plant response rating, Chickweed ([11]; 250 g/ha) | Plant response rating Duck salad ([18]; 250 g/ha)
40: Plant response rating (0 to 100), Bedstraw ([10]; Rate 16 g/ha) | Plant response rating, Crabgrass ([12]; 250 g/ha) | Plant response rating Downy Brome ([13]; 62 g/ha) | Plant response rating, Giant foxtail ([14]; 62 g/ha) | Plant response rating, Wild oat ([16]; 62 g/ha)
1: Plant response rating, Corn ([4]; Rate 200 g/ha, PREEMERGENCE) | Plant response rating, Sorghum ([8]; Rate 200 g/ha, PREEMERGENCE)
85: Plant response rating (0 to 100), Wild buckwheat ([15]; Rate 16 g/ha)
5: Plant response rating, Barley ([1]; POSTEMERGENCE, Rate 200 g/ha) | Plant response rating, Wheat ([9]; POSTEMERGENCE, Rate 50 g/ha)
90: Plant response rating, Giant foxtail ([14]; 250 g/ha)
3: Plant response rating, Barnyardgrass ([2]; Rate 200 g/ha, PREEMERGENCE) | Plant response rating, Corn ([4]; POSTEMERGENCE, Rate 50 g/ha) | Plant response rating, Corn ([4]; POSTEMERGENCE, Rate 200 g/ha)
60: Plant response rating, Chickweed ([11]; 62 g/ha) | Plant response rating (0 to 100), Wild buckwheat ([15]; Rate 4 g/ha) | Plant response rating, Wild oat ([16]; 250 g/ha) | Plant response rating Rice Japonica ([17]; 250 g/ha) | Plant response rating Duck salad ([18]; 62 g/ha)
6: Plant response rating, Giant foxtail ([6]; POSTEMERGENCE, Rate 50 g/ha) | Plant response rating, Giant foxtail ([6]; PREEMERGENCE, Rate 50 g/ha) | Plant response rating, Rape ([7]; Rate 200 g/ha, POSTEMERGENCE) | Plant response rating, Sorghum ([8]; Rate 200 g/ha, POSTEMERGENCE) | Plant response rating, Wheat ([9]; Rate 200 g/ha, POSTEMERGENCE)
8: Plant response rating, Barnyardgrass ([2]; POSTEMERGENCE, Rate 200 g/ha) | Plant response rating, Chickweed ([3]; POSTEMERGENCE, Rate 200 g/ha) | Plant response rating, Crabgrass ([5]; POSTEMERGENCE, Rate 50 g/ha) | Plant response rating, Rape ([7]; POSTEMERGENCE, Rate 50 g/ha)
20: Plant response rating (0 to 100), Bedstraw ([10]; Rate 4 g/ha) | Plant response rating (0 to 100), Crabgrass ([12]; Rate 16 g/ha) | Plant response rating (0 to 100), Downy Brome ([13]; Rate 16 g/ha) | Plant response rating (0 to 100), Giant foxtail ([14]; Rate 4 g/ha) | Plant response rating (0 to 100), Wild oat ([16]; Rate 4 g/ha) | Plant response rating (0 to 100), Rice Japonica [17, 20]
100: Plant response rating, Bedstraw ([10]; 62 g/ha) | Plant response rating, Bedstraw ([10]; 250 g/ha) | Plant response rating, Wild buckwheat ([15]; 62 g/ha) | Plant response rating, Wild buckwheat ([15]; 250 g/ha)
